Test results taken from PubChem BioAssay AID1648 (Sanford-Burnham Center for Chemical Genomics, 2009).
The source made the active and inactive calls. No rule for the calls is given here.

Molecular target: Serine/threonine-protein kinase mTOR (Homo sapiens) (UniProt P42345)
Experiment: binders of mTOR FRB domain, biophysical, NMR (AID 1648)
Details: NMR binding to FRB domain, chemical shift

Sequence of Serine/threonine-protein kinase mTOR (Homo sapiens) (P42345 2015-2114): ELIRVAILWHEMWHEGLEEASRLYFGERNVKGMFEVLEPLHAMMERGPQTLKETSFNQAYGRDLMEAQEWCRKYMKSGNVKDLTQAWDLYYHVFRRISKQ

O=[N+]([O-])c1cccc(CN2CCC(O)CC2)c1
Kd: > 4 mM (inactive)

COc1ccc(C)cc1S(=O)(=O)N1CCCCC1
Kd: > 4 mM (inactive)

COc1cc2c(cc1OC)C(=O)OC2
Kd: > 4 mM (inactive)

Clc1ncc2[nH]cnc2n1
Kd: > 4 mM (inactive)

NC(=O)CN1CC(=O)NC(=O)C1
Kd: > 4 mM (inactive)

CSc1nc(NC(C)(C)C)nc(N2CCOCC2)n1
Kd: > 4 mM (inactive)

CC(=O)c1c(C)n([O-])c2ccccc2[n+]1=O
Kd: > 4 mM (inactive)

Cn1cc(Cl)c(C(=O)NC2CCCCCC2)n1
Kd: > 4 mM (inactive)

Cc1ccc(/C=C2/NC(=S)NC2=O)s1
Kd: > 4 mM (inactive)

COc1nc(N2CCOCC2)nc(N)c1[N+](=O)[O-]
Kd: > 4 mM (inactive)

CC(=O)c1cccc(NC(=O)Nc2c(C)nn(C)c2C)c1
Kd: > 4 mM (inactive)

Cc1ccc(S(=O)(=O)CC(N)=O)cc1
Kd: > 4 mM (inactive)

Cc1nc(-c2ccccc2)sc1CO
Kd: > 4 mM (inactive)

CC(=O)Nc1ccc(NC(=O)/C=C\C(=O)O)cc1
Kd: > 4 mM (inactive)

Cc1cc(C)n2nc(-c3cccnc3)nc2n1
Kd: > 4 mM (inactive)

CC(=O)Nc1cc2c(cc1C(=O)C(C)C)OCCO2
Kd: > 4 mM (inactive)

O=C(Nc1cccc(C(F)(F)F)c1)c1cccnc1
Kd: > 4 mM (inactive)

O=C(Cc1c(F)cccc1Cl)Nc1ccncc1
Kd: > 4 mM (inactive)

CC(=O)O[C@H]1CCC2(C)C3=C(CCC2C1(C)C)[C@@]1(C)CC[C@@H](C(C)CCC=C(C)C)[C@]1(C)CC3 (stereo partly specified)
Kd: > 4 mM (inactive)

O=C(O)Cc1csc(-c2ccccc2)n1
Kd: > 4 mM (inactive)

CC(=O)NC(O)C(=O)c1ccccc1 (stereo unspecified)
Kd: > 4 mM (inactive)

CN1CCN(C(=O)c2ccccc2C(=O)O)CC1
Kd: > 4 mM (inactive)

O=C(NCCO)c1ccccc1I
Kd: > 4 mM (inactive)

CC(C)CCCC(C)[C@H]1CCC2C3CC=C4C[C@@H](O)CC[C@]4(C)C3CC[C@@]21C (stereo partly specified)
Kd: > 4 mM (inactive)

O=C1C2CC=CCC2C(=O)N1c1ccccc1 (stereo unspecified)
Kd: > 4 mM (inactive)

NC(CCC(=O)Nc1ccc([N+](=O)[O-])cc1)C(=O)O (stereo unspecified)
Kd: > 4 mM (inactive)

CC(=O)Nc1ccc(-c2cn3ccsc3n2)cc1
Kd: > 4 mM (inactive)

CN=C(C)c1c(O)n(C)c(=O)n(C)c1=O
Kd: > 4 mM (inactive)

COc1cc2c(cc1O)[C@@H](Cc1ccc(O)cc1)[N+](C)(C)CC2
Kd: > 4 mM (inactive)

CC(=O)NC1=NN(c2ccccc2)C(=O)C1
Kd: > 4 mM (inactive)

COC(=O)c1cccc(Cn2nnc3ccccc3c2=O)c1
Kd: > 4 mM (inactive)

CCN1C[C@@]2(COC)C3[C@@H](OC)[C@H]4[C@@H]1[C@]3(C(OC)C[C@H]2O)C1C[C@@]2(O)[C@H](OC(=O)c3ccccc3)C1[C@]4(OC(C)=O)[C@@H](O)[C@@H]2OC (stereo partly specified)
Kd: > 4 mM (inactive)

CN(C)N1C(=O)C2CCCCC2C1=O (stereo unspecified)
Kd: > 4 mM (inactive)

COCC(=O)Nc1cc2c3c(c1)CCN3C(=O)CC2
Kd: > 4 mM (inactive)

Nc1ccc(OC(F)(F)F)cc1
Kd: > 4 mM (inactive)

COC(=O)C1=CCCN(C)C1
Kd: > 4 mM (inactive)

COc1cc(O)c2c(c1)C(=O)c1cc(C)cc(O)c1C2=O
Kd: > 4 mM (inactive)

CC1(C)NC(=O)N(CN2CCOCC2)C1=O
Kd: > 4 mM (inactive)

O=S(=O)(CCN1CCCC1)c1ccccc1
Kd: > 4 mM (inactive)

COc1cc(-c2csc(C)n2)ccc1O
Kd: > 4 mM (inactive)

Cc1noc(C)c1C(=O)NC1=NCCS1
Kd: > 4 mM (inactive)

Cc1nc(N)sc1C(=O)N/N=C/c1ccncc1
Kd: > 4 mM (inactive)

N#CCc1nc2ccccc2s1
Kd: > 4 mM (inactive)

COC(=O)C[C@H]1C2(C)CC34OC5(C)O[C@@]6([C@H](OC(C)=O)C(OC(C)=O)[C@]7(C)C(/C(=C(/O)C(C)C)C(=O)O[C@H]7c7ccoc7)[C@@]6(O5)[C@H](OC(C)=O)[C@@]3(O)C2OC(=O)C(C)C)[C@]14C (stereo partly specified)
Kd: > 4 mM (inactive)

OCc1ccncc1
Kd: > 4 mM (inactive)

CCOC(=O)c1c(C)cc(OC)cc1O
Kd: > 4 mM (inactive)

CC(=O)Nc1ccc(NC(=O)c2ccncc2)cc1
Kd: > 4 mM (inactive)

c1ccc(-c2n[nH]c(-c3ccccn3)n2)nc1
Kd: > 4 mM (inactive)

Cc1cc(=O)[nH]c(N)n1
Kd: > 4 mM (inactive)

O=C(Cc1c(F)cccc1Cl)Nc1cccnc1
Kd: > 4 mM (inactive)

Cc1cc2c(=O)n(C)c(SCC(N)=O)nc2s1
Kd: > 4 mM (inactive)

CSc1nnc(CN2CCSCC2)n1C
Kd: > 4 mM (inactive)

CC(=O)O[C@@H]1CC2C(C)(C)CCC(=O)[C@]2(C)C2CC[C@@]3(C)[C@H](c4ccoc4)OC(=O)C4OC43[C@@]21C (stereo partly specified)
Kd: > 4 mM (inactive)

Cc1cc(C(=O)N2CCN(c3ccccn3)CC2)no1
Kd: > 4 mM (inactive)

CC(C)=CCCC1(C)C=Cc2c(O)c3c(c(CC=C(C)C)c2O1)OC12C(=CC4CC1C(C)(C)OC2(C/C=C(/C)C(=O)O)C4=O)C3=O (stereo unspecified)
Kd: > 4 mM (inactive)

O=C1NC(=S)N/C1=C\c1ccccc1
Kd: > 4 mM (inactive)
